The source of these data is publication PMC3901262 (Investigational new drugs, 2013).

The nature of data set [1]: Plasma pharmacokinetics of vorinostat and metabolites. The class given is in vivo, human. The note with it: for AUC (0-infinity) / Cmax / T1/2 / Tmax / AUC / Cl/F: plasma; for AUC: Mean AUC.
Data set [2] relates to patients with advanced solid tumors. Put plainly: Phase I dose escalation: toxicity, DLT and MTD. It counts as in vivo, human.
The test system of a further data set is refractory NSCLC. As to conditions: single agent; ref [36]; cited from earlier work.
Where [3] appears, read: C1D1, vorinostat 400 mg oral alone (single dose).
[4] abbreviates: C1D2, vorinostat 400 mg oral + bortezomib.
Where [5] appears, read: C1D12, vorinostat 400 mg oral steady state, with bortezomib.

Consider `O=C(CCCCCCC(=O)Nc1ccccc1)NO[C@@H]1O[C@H](C(=O)O)[C@@H](O)[C@H](O)[C@H]1O` [Vorinostat glucuronide, vorinostat glucuronide], for which, in data set [1] (setting [3]), the “AUC (0-infinity)” value turned out to be 4843 ± 3034 ng·h/mL; the Cmax (as a rule, the peak of the concentration-time curve) was 1153 ± 922 ng/mL; the T1/2 was 1.9 ± 1.4 h; the time of peak concentration (Tmax) – broadly, the time from dosing to the highest level – was 1.9 ± 1.0 h. In data set [1] (setting [4]), the “AUC (0-infinity)” value is 5283 ± 2915 ng·h/mL, the peak concentration (Cmax) is given as 1225 ± 496 ng/mL, the T1/2 was found to be 1.6 ± 0.5 h and the Tmax turned out to be 3.2 ± 1.8 h. Moreover, in data set [1] (setting [5]), the “AUC (0-infinity)” value was found to be 4169 ± 1548 ng·h/mL, the Cmax amounted to 849 ± 479 ng/mL, the T1/2 worked out at 2.0 ± 0.8 h and the time of peak concentration (Tmax) was determined as 2.0 ± 1.0 h.

Take `O=C(CCCCCCC(=O)Nc1ccccc1)NO` [vorinostat, suberoylanilide hydroxamic acid]: the “MTD, vorinostat” value in data set [2] (orally daily days 1-14 of 21-day cycle, with bortezomib) was found to be 400 mg. The “AUC and Cmax in individuals experiencing a DLT compared with no DLT” value in data set [1] (all days of treatment, p < 0.05) was “significantly higher”. The “AUC and Cmax on day 12 compared with day 1” value in data set [1] (cycle 1, steady state vs single dose, p < 0.05) is listed as “significantly higher”. Further, the “day 1 compared with day 2 plasma concentrations (influence of bortezomib)” value in data set [1] (cycle 1, vorinostat alone vs vorinostat + bortezomib) is listed as “no difference”. Also, the Cmax in data set [1] (human, oral, 400 mg, Cmax, C1D1, patients with DLT (3)) amounted to 551 ± 174 ng/mL; in data set [1] (human, oral, Cmax, C1D2, patients with DLT (3)) it was 675 ± 363 ng/mL; in data set [1] (human, oral, Cmax, C1D12, patient with DLT (1)), 905 ng/mL; in data set [1] (human, oral, Cmax, C1D12, patients with No DLT (13)) it was 448 ± 314 ng/mL. In addition, the AUC – broadly, concentration integrated over time – was determined as 1450 ± 277 ng·h/mL in data set [1] (human, oral, 400 mg, C1D1, patients with DLT (3)); 999 ± 438 ng·h/mL in data set [1] (human, oral, 400 mg, C1D1, patients with No DLT (16)); 1790 ± 436 ng·h/mL in data set [1] (human, oral, C1D2, patients with DLT (3)); 983 ± 418 ng·h/mL in data set [1] (human, oral, C1D2, patients with No DLT (16)); 2230 ng·h/mL in data set [1] (human, oral, C1D12, patient with DLT (1)); 1410 ± 962 ng·h/mL in data set [1] (human, oral, C1D12, patients with No DLT (13)). The results for the Cl/F in data set [1] (setting [3]), in data set [1] (setting [4]) and in data set [1] (setting [5]) were 6.4 ± 3.2 L/min, 11 ± 4.1 L/min and 13 ± 3.3 L/min, respectively. The objective antitumor activity result in the data set on refractory NSCLC is “no objective antitumor activity”.

For `O=C(O)CCC(=O)Nc1ccccc1` [Vorinostat acid, 4-anilino-4-oxobutanoic acid], the “mean baseline plasma concentration” value in data set [1] (Day 2, before vorinostat dose) was determined as 130 ± 68 ng/mL. In data set [1] (setting [3]), the Cmax worked out at 815 ± 282 ng/mL and the time of peak concentration (Tmax) came out at 2.8 ± 1.4 h.

Consider `CC(C)C[C@H](NC(=O)[C@H](Cc1ccccc1)NC(=O)c1cnccn1)B(O)O` [bortezomib], for which the “MTD, bortezomib” value in data set [2] (IV days 1, 4, 8, 11 of 21-day cycle, with vorinostat 400 mg) was determined as 1.3 mg/m^2.
